Source: patent US20110136745A1, “METHOD OF SELECTING SOYBEANS WITH ENHANCED BIOACTIVITY AND COMPOSITIONS FOR REDUCING CANCER CELL VIABILITY” (Monsanto Technology LLC., priority 2008, published 2011)

System: L1210 leukemia cells
Test: Cytotoxicity assay on L1210 leukemia cells (Cell Counting Kit-8)
Details: positive control at 1.0 μM

Structure (SMILES): COc1cc([C@@H]2c3cc4c(cc3[C@@H](O[C@@H]3O[C@@H]5CO[C@@H](C)O[C@H]5[C@H](O)[C@H]3O)[C@H]3COC(=O)[C@H]23)OCO4)cc(OC)c1O [etoposide, Etoposide]
- inhibition of L1210 leukemia cell growth: 90.5%
